The record followed here is US8791108B2, “Inhibitors of human immunodeficiency virus replication” (priority 2011, dated 2014).

Read-outs that look alike come from different tables or passages of the source.

This assay relates to recombinant NL-Rluc virus. Put plainly: Inhibition of HIV replication (NL-RLuc luciferase reporter virus, MT-2 cells). Format: cell-based. Background: Reporter assays use an easily measured gene product as a stand-in for the process of interest.
[1] abbreviates: Human immunodeficiency virus 1, MT2, 120 h, read-out: Activity.
[2] abbreviates: Human immunodeficiency virus 1, MT2, 120 h, read-out: EC50 μM.

Regarding `Cc1nc2cc(C(=O)NCCC3(O)CCCC3)nn2c(-c2cc(F)c3c(c2C)CCCO3)c1[C@H](OC(C)(C)C)C(=O)O` [Example 134, (2S)-2-(tert-butoxy)-2-(7-(8-fluoro-5-methylchroman-6-yl)-2-((2-(1-hydroxycyclopentyl)ethyl)carbamoyl)-5-methylpyrazolo[1,5-a]pyrimidin-6-yl)acetic acid], under setting [1], the EC50 was over 1 µM.

For `Cc1nc2cc(C(=O)NCC34CC5C[C@H](C3)C(O)[C@H](C5)C4)nn2c(-c2cc(F)c3c(c2C)CCCO3)c1[C@H](OC(C)(C)C)C(=O)O` (stereo partly drawn) [Example 135, (2S)-2-(tert-butoxy)-2-(7-(8-fluoro-5-methylchroman-6-yl)-2-((((1R,3R,4S,5R,7S)-4-hydroxyadamantan-1-yl)methyl)carbamoyl)-5-methylpyrazolo[1,5-a]pyrimidin-6-yl)acetic acid], the EC50 (NL-RLuc virus in MT-2 cells, 5 days of incubation, luciferase readout, serum condition not given, read-out: Activity) was in the range of 0.1 to 1 µM.

Consider `Cc1nc2cc(C(=O)NCCSC(C)(C)C)nn2c(-c2cc(F)c3c(c2C)CCCO3)c1[C@H](OC(C)(C)C)C(=O)O` [Example 136, (2S)-2-(tert-butoxy)-2-(2-((2-(tert-butylthio)ethyl)carbamoyl)-7-(8-fluoro-5-methylchroman-6-yl)-5-methylpyrazolo[1,5-a]pyrimidin-6-yl)acetic acid], for which the EC50 under setting [1] was under 0.1 µM.

For the compound `CNC(=O)c1cc2nc(C)c([C@H](OC(C)(C)C)C(=O)O)c(-c3cc(F)c4c(c3C)CCCO4)n2n1` [Example 137, (2S)-2-(tert-butoxy)-2-(7-(8-fluoro-5-methylchroman-6-yl)-5-methyl-2-(methylcarbamoyl)pyrazolo[1,5-a]pyrimidin-6-yl)acetic acid], the EC50 under setting [1] was over 1 µM.

Consider `Cc1cc(CNC(=O)c2nn3c(-c4cc(F)c5c(c4C)CCCO5)c([C@H](OC(C)(C)C)C(=O)O)c(C)nc3c2F)ccc1F` [Example 139, (2S)-2-(tert-Butoxy)-2-(3-fluoro-2-((4-fluoro-3-methylbenzyl)carbamoyl)-7-(8-fluoro-5-methylchroman-6-yl)-5-methylpyrazolo[1,5-a]pyrimidin-6-yl)acetic acid], for which, under setting [1], the EC50 was under 0.1 µM.

With `Cc1cc(CNC(=O)c2nn3c(-c4cc(F)c5c(c4C)CCCO5)c([C@H](OC(C)(C)C)C(=O)O)c(C)nc3c2Cl)ccc1F` [Example 140, (2S)-2-(tert-Butoxy)-2-(3-chloro-2-((4-fluoro-3-methylbenzyl)carbamoyl)-7-(8-fluoro-5-methylchroman-6-yl)-5-methylpyrazolo[1,5-a]pyrimidin-6-yl)acetic acid], the EC50 under setting [1] is under 0.1 µM.

Take `Cc1cc(CNC(=O)c2cc3nc(C)c([C@H](OC(C)(C)C)C(=O)O)c(-c4ccc5c(c4Cl)NCCO5)n3n2)ccc1F` [Example 141, (2S)-2-(tert-Butoxy)-2-(7-(5-chloro-3,4-dihydro-2H-benzo[b][1,4]oxazin-6-yl)-2-((4-fluoro-3-methylbenzyl)carbamoyl)-5-methylpyrazolo[1,5-a]pyrimidin-6-yl)acetic acid]: the EC50 by setting is: under setting [1], 0.1 to 1 µM; under setting [2], 0.114 µM.

On to `CCCCCc1ccccc1CNC(=O)c1cc2nc(C)c([C@H](OC(C)(C)C)C(=O)O)c(-c3ccc4c(c3Cl)NCCO4)n2n1` [Example 142, (2S)-2-(tert-Butoxy)-2-(7-(5-chloro-3,4-dihydro-2H-benzo[b][1,4]oxazin-6-yl)-5-methyl-2-((2-pentylbenzyl)carbamoyl)pyrazolo[1,5-a]pyrimidin-6-yl)acetic acid], for which the EC50 under setting [1] is under 0.1 µM.

With `CCCCOc1cc(F)ccc1CNC(=O)c1cc2nc(C)c([C@H](OC(C)(C)C)C(=O)O)c(-c3ccc4c(c3Cl)NCCO4)n2n1` [Example 143, (2S)-2-(tert-Butoxy)-2-(2-((2-butoxy-4-fluorobenzyl)carbamoyl)-7-(5-chloro-3,4-dihydro-2H-benzo[b][1,4]oxazin-6-yl)-5-methylpyrazolo[1,5-a]pyrimidin-6-yl)acetic acid], the EC50 was under 0.1 µM under setting [1] and 0.028 µM under setting [2].

Regarding `Cc1nc2cc(C(=O)NCCC(C)(C)C)nn2c(-c2ccc3c(c2Cl)NCCO3)c1[C@H](OC(C)(C)C)C(=O)O` [Example 144, (2S)-2-(tert-Butoxy)-2-(7-(5-chloro-3,4-dihydro-2H-benzo[b][1,4]oxazin-6-yl)-2-((3,3-dimethylbutyl)carbamoyl)-5-methylpyrazolo[1,5-a]pyrimidin-6-yl)acetic acid], the EC50 was 0.1 to 1 µM under setting [1] and 0.122 µM under setting [2].

On to `Cc1cc(CNC(=O)c2cc3nc(C)c([C@H](OC(C)(C)C)C(=O)O)c(-c4cc5c(cc4F)OCCN5)n3n2)ccc1F` [Example 145, (2S)-2-(tert-Butoxy)-2-(7-(7-fluoro-3,4-dihydro-2H-benzo[b][1,4]oxazin-6-yl)-2-((4-fluoro-3-methylbenzyl)carbamoyl)-5-methylpyrazolo[1,5-a]pyrimidin-6-yl)acetic acid], for which, under setting [1], the EC50 was under 0.1 µM.

Take `Cc1nc2cc(C(=O)NCCC(C)(C)C)nn2c(-c2cc3c(cc2F)OCCN3)c1[C@H](OC(C)(C)C)C(=O)O` [Example 146, (2S)-2-(tert-Butoxy)-2-(2-((3,3-dimethylbutyl)carbamoyl)-7-(7-fluoro-3,4-dihydro-2H-benzo[b][1,4]oxazin-6-yl)-5-methylpyrazolo[1,5-a]pyrimidin-6-yl)acetic acid]: the EC50 under setting [1] was under 0.1 µM.

As to `Cc1cc(CNC(=O)c2cc3nc(C)c([C@H](OC(C)(C)C)C(=O)O)c(C4=CCC(C)(C)CC4)n3n2)ccc1F` [Example 147, (S)-2-(tert-butoxy)-2-(7-(4,4-dimethylcyclohex-1-en-1-yl)-2-((4-fluoro-3-methylbenzyl)carbamoyl)-5-methylpyrazolo[1,5-a]pyrimidin-6-yl)acetic acid], under setting [1], the EC50 was under 0.1 µM.

Turning to `Cc1nc2cc(C(=O)NCCC(C)(C)C)nn2c(C2=CCC(C)(C)CC2)c1[C@H](OC(C)(C)C)C(=O)O` [Example 148, (S)-2-(tert-Butoxy)-2-(2-((3,3-dimethylbutyl)carbamoyl)-7-(4,4-dimethylcyclohex-1-en-1-yl)-5-methylpyrazolo[1,5-a]pyrimidin-6-yl)acetic acid], under setting [1], the EC50 was under 0.1 µM.

For the compound `Cc1cc(CNC(=O)c2cc3nc(C)c([C@H](OC(C)(C)C)C(=O)O)c(/C=C/CC(C)C)n3n2)ccc1F` [Example 149, (S,E)-2-(tert-Butoxy)-2-(2-((4-fluoro-3-methylbenzyl)carbamoyl)-5-methyl-7-(4-methylpent-1-en-1-yl)pyrazolo[1,5-a]pyrimidin-6-yl)acetic acid], the EC50 under setting [1] was over 1 µM.

On to `Cc1nc2cc(C(=O)NCCC(C)(C)C)nn2c(/C=C/CC(C)C)c1[C@H](OC(C)(C)C)C(=O)O` [Example 150, (S,E)-2-(tert-Butoxy)-2-(2-((3,3-dimethylbutyl)carbamoyl)-5-methyl-7-(4-methylpent-1-en-1-yl)pyrazolo[1,5-a]pyrimidin-6-yl)acetic acid], for which the EC50 by setting is: under setting [1], over 1 µM; under setting [2], 1.2 µM.

`Cc1cc(CNC(=O)c2cc3nc(C)c([C@H](OC(C)(C)C)C(=O)O)c(N4CCC(C)(C)CC4)n3n2)ccc1F` [Example 151, (S)-2-(tert-Butoxy)-2-(7-(4,4-dimethylpiperidin-1-yl)-2-((4-fluoro-3-methylbenzyl)carbamoyl)-5-methylpyrazolo[1,5-a]pyrimidin-6-yl)acetic acid]: under setting [1], the EC50 is under 0.1 µM.

With `Cc1nc2cc(C(=O)NCCC(C)(C)C)nn2c(N2CCC(C)(C)CC2)c1[C@H](OC(C)(C)C)C(=O)O` [Example 152, (S)-2-(tert-Butoxy)-2-(2-((3,3-dimethylbutyl)carbamoyl)-7-(4,4-dimethylpiperidin-1-yl)-5-methylpyrazolo[1,5-a]pyrimidin-6-yl)acetic acid], the EC50 reads like this: under setting [1], under 0.1 µM; under setting [2], 0.03 µM.
